# Test system: U266 multiple myeloma cells
# Test: MTT assay
# Assay type: cell-based
# Conditions: Homo sapiens, U-266, 72 h, read-out: U266 IC50
structure (smiles),measurement,value
CC[C@@H]1C(=O)N(C)c2cnc(Nc3ccc(C(=O)NC4CCN(C)CC4)cc3OC)nc2N1C1CCCC1 [BI 2536],IC50,280 ± 30 nM
